{"source": "patent US7915050B2", "about": "“Regulatory genes for plant differentiation and growth, and use of the same” (National University Corporation Nagoya University, priority 2005, dated 2011)", "key": {"AtGID1a": {"target": "T1, AtGID1a (Arabidopsis thaliana, UniProt Q9MAA7)", "T1 construct": "made in house; host or cells: E. coli", "T1 sequence (Q9MAA7 1-345)": "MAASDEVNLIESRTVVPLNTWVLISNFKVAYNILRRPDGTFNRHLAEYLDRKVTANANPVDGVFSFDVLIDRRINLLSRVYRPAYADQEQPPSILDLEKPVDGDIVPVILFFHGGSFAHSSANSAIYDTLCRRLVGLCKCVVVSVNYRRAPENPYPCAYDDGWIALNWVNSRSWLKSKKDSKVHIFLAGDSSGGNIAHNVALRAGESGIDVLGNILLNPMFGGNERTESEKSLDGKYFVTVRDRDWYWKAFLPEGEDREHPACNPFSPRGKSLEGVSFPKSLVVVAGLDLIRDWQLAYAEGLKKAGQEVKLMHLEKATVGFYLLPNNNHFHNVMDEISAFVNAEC", "assay": "Competitive ability of GA in AtGID1-GA binding (AtGID1a)", "experimental": "(§1) In the gibberellin-binding assay, [1,2,16,17-^3H4]16,17-dihydro-GA4 was used as a labeled GA4. In vitro GA-binding assays were carried out using previous methods with some modifications (Nakajima, M. et al., Biochem. Biophys. Res. Comm. 241, 782-786 (1997)). The purified recombinant GID1 protein (400 pmol) was dissolved in 300 μl of binding buffer [20 mM Tris-HCl (pH 7.6), 5 mM 2-mercaptoethanol, and 0.1 M NaCl], and incubated with 100 μl of ^3H4-16,17-dihydroGA4 (6 pmol) for two hours at 25° C., either in the absence of non-labeled GA4 (total binding) or in the presence of 833-fold excess non-labeled GA4 (total non-specific binding). Then, 0.1 ml of the reaction mixture was loaded onto a NAP-5 column (Amersham Biosciences, Piscataway, N.J.). The eluate of the binding buffer (0.6 ml) was discarded, the subsequent eluate (0.2 ml) was collected, and the radioactivity was measured. The specific binding activity, reflecting the number of displaceable GA binding sites, was calculated by subtracting the amount of nonspecific binding from the amount of total binding. The same as above can also be carried out for other GAs.\n(§2) Specifically, the coding region of the AtGID1 gene was amplified by PCR using specific primers designed based on the full-length cDNA sequence of the AtGID1 gene and having appropriate restriction sites at each end. After confirmation by sequence analysis, each cDNA fragment was ligated into pET32a vector (Novagen/Merck Biosciences, Madison, Wis., USA) or pGEX-4T-2 vector (Amersham Biosciences, Piscataway, N.J., USA; currently, a part of GE Healthcare). The production of recombinant proteins was confirmed by SDS-PAGE; vector cassettes were used as negative controls. GA binding assays were carried out similarly as described above using [1,2,16,17-^3H4]-16,17-dihydro-GA4 (4.55 TBq/mmol), which was custom-made by DuPont/NEN (Boston, Mass., USA). Non-labeled GA4 (1.25 mM) was used to measure non-specific binding. Saturation experiments for the kinetic analysis were carried out using ten concentrations of 16,17-dihydro-GA4 within the range of 25 to 1,500 nM. Competition assays were performed using [1,2,16,17-^3H4]-16,17-dihydro-GA4 at 15 nM and five concentrations of the non-labeled competitor. Recombinant RGA and GAI proteins were prepared using pET32a by a previously described method.\n(§3) The ligand selectivity of each AtGID1 was examined by observing the competitive inhibition, by the addition of GA to the assay mixtures, of the binding between the recombinant proteins and tritiated 16,17-dihydro-GA4 (Table 2). The ligand selectivity was evaluated using the concentration of GA that inhibits 50% of the tracer (15 nM) binding (IC50 value)."}, "AtGID1c": {"target": "T2, AtGID1c (Arabidopsis thaliana, UniProt Q940G6)", "T2 construct": "made in house; host or cells: E. coli", "T2 sequence (Q940G6 1-344)": "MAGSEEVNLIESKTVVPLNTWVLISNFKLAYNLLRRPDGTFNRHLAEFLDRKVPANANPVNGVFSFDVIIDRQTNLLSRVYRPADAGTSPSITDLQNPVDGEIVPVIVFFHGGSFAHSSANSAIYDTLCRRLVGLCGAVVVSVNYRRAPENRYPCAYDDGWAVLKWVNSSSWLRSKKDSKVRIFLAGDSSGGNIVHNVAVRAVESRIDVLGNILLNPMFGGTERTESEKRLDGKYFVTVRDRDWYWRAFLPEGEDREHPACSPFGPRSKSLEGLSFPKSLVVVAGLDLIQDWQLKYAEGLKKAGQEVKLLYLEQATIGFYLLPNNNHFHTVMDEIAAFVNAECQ", "assay": "Competitive ability of GA in AtGID1-GA binding (AtGID1c)", "experimental": "as §1, §2, §3"}, "[1]": {"conditions": "tracer 15 nM, mean of at least two measurements"}}, "data": [{"smiles": "CC1C[C@]23C[C@H]1CCC2[C@]12CC[C@H](O)[C@](C)(C(=O)O1)[C@H]2[C@@H]3C(=O)O", "note": "(stereo partly shown) [H2-GA4, 16,17-dihydro-GA4]", "values": [{"measurement": "relative value, taking the value for GA4 as 100", "setting": "AtGID1a", "result": "(8) %"}, {"measurement": "IC50", "setting": "AtGID1a; [1]", "result": 4, "unit": "µM"}, {"measurement": "relative value, taking the value for GA4 as 100", "setting": "AtGID1c", "result": "(6) %"}, {"measurement": "IC50", "setting": "AtGID1c; [1]", "result": 5, "unit": "µM"}]}]}
